Measurements taken from patent publication US11178871B2, “Herbicidal pyrimidine compounds” (BASF SE, priority 2016, dated 2021).

Columns and labels:
Assay type in all cases: in vivo
Abutilon theophrasti = experiment: greenhouse test, post-emergence treatment, ABUTH
Excerpt: (§1) The culture containers used were plastic flowerpots containing loamy sand with approximately 3.0% of humus as the substrate. The seeds of the test plants were sown separately for each species.
(§2) For the post-emergence treatment, the test plants were first grown to a height of 3 to 15 cm, depending on the plant habit, and only then treated with the active ingredients which had been suspended or emulsified in water. For this purpose, the test plants were either sown directly and grown in the same containers, or they were first grown separately as seedlings and transplanted into the test containers a few days prior to treatment.
(§3) Depending on the species, the plants were kept at 10-25° C. or 20-35° C., respectively.
(§4) The test period extended over 2 to 4 weeks. During this time, the plants were tended, and their response to the individual treatments was evaluated.
(§5) Evaluation was carried out using a scale from 0 to 100. 100 means no emergence of the plants, or complete destruction of at least the aerial moieties, and 0 means no damage, or normal course of growth. A good herbicidal activity is given at values of at least 70 and a very good herbicidal activity is given at values of at least 85.
(§6) The plants used in the greenhouse experiments were of the following species: […]

Amaranthus retroflexus = experiment: greenhouse test, post-emergence treatment, AMARE
Excerpt: as §1, §2, §3, §4, §5, §6

Setaria viridis = experiment: greenhouse test, post-emergence treatment, SETVI
Excerpt: as §1, §2, §3, §4, §5, §6

Apera spica-venti = experiment: greenhouse test, pre-emergence treatment, APESV
Method in brief: (§7)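 Herbicidal effect rated on a 0-100 scale, where 0 is normal growth and 100 is no emergence or destroyed aerial parts, 2 to 4 weeks after soil application at sowing.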

Echinocloa crus-galli [1] = experiment: greenhouse test, post-emergence treatment, ECHCG; conditions: post-emergence
Method in brief: (§8)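 Herbicidal effect is rated 0–100, where 100 denotes total destruction of aerial parts and 0 denotes unaffected growth. Treatment occurs once plants reach 3–15 cm in humus-containing loamy sand, with compound applied in water; the trial runs 2–4 weeks at 10–25 °C or 20–35 °C.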

Alopecurus myosuroides = experiment: greenhouse test, post-emergence treatment, ALOMY; conditions: post-emergence
Method in brief: as §8

Echinocloa crus-galli [2] = experiment: greenhouse test, pre-emergence treatment, ECHCG
Method in brief: as §7

Poa annua = experiment: greenhouse test, pre-emergence treatment, POAAN
Excerpt: as §1
For the pre-emergence treatment, the active ingredients, which had been suspended or emulsified in water, were applied directly after sowing by means of finely distributing nozzles. The containers were irrigated gently to promote germination and growth and subsequently covered with transparent plastic hoods until the plants had rooted. This cover caused uniform germination of the test plants, unless this had been impaired by the active ingredients.
as §3, §4, §5, §6

For `CC(C)(O)c1nc(C2CC2)ncc1-c1ccccc1Cl` [Ex. 86], the herbicidal activity (Abutilon theophrasti; 1000 g/ha) was “good (A good herbicidal activity is given at values of at least 70)”, the herbicidal activity (Amaranthus retroflexus; 1000 g/ha) was “good (A good herbicidal activity is given at values of at least 70)” and the herbicidal activity (Setaria viridis; 1000 g/ha) was “very good (a very good herbicidal activity is given at values of at least 85)”. For the same compound, the herbicidal activity (Apera spica-venti; 1000 g/ha) was “good (A good herbicidal activity is given at values of at least 70)”.
For `COc1ncc(-c2ccccc2Cl)c(/C=C/c2ccco2)n1` [Ex. 228], the herbicidal activity (Echinocloa crus-galli [1]; 1000 g/ha) was “good (A good herbicidal activity is given at values of at least 70)”, the herbicidal activity (Abutilon theophrasti; 1000 g/ha) was “good (A good herbicidal activity is given at values of at least 70)” and the herbicidal activity (Apera spica-venti; 1000 g/ha) was “very good (a very good herbicidal activity is given at values of at least 85)”.
`CC(C)CC#Cc1nc(C2CC2)ncc1-c1ccccc1Cl` [Ex. 28] was tested, and the herbicidal activity (Abutilon theophrasti; 1163 g/ha) was “good (A good herbicidal activity is given at values of at least 70)” and the herbicidal activity (Amaranthus retroflexus; 1163 g/ha) was “very good (a very good herbicidal activity is given at values of at least 85)”.
In the case of `CC1(C)OC(c2nc(C3CC3)ncc2-c2ccccc2Cl)C(C)(C)O1` (stereo not drawn) [Ex. 266], the herbicidal activity (Alopecurus myosuroides; 1000 g/ha) is reported as “very good (a very good herbicidal activity is given at values of at least 85)”, the herbicidal activity (Abutilon theophrasti; 1000 g/ha) is reported as “very good (a very good herbicidal activity is given at values of at least 85)” and the herbicidal activity (Echinocloa crus-galli [2]; 1000 g/ha) is reported as “very good (a very good herbicidal activity is given at values of at least 85)”. The herbicidal activity (Amaranthus retroflexus; 1000 g/ha) was “very good (a very good herbicidal activity is given at values of at least 85)” and the herbicidal activity (Apera spica-venti; 1000 g/ha) was “very good (a very good herbicidal activity is given at values of at least 85)”.
With `Brc1cc(-c2nc(C3CC3)ncc2-c2ccccc2Br)co1` [Ex. 268] the herbicidal activity (Echinocloa crus-galli [1]; 1000 g/ha) was “very good (a very good herbicidal activity is given at values of at least 85)”, the herbicidal activity (Poa annua; 1000 g/ha) was “very good (a very good herbicidal activity is given at values of at least 85)” and the herbicidal activity (Echinocloa crus-galli [2]; 1000 g/ha) was “very good (a very good herbicidal activity is given at values of at least 85)”.
In the case of `CC1(C)OCC(=Cc2nc(C3CC3)ncc2-c2ccccc2Cl)CO1` [Ex. 296], the herbicidal activity (Abutilon theophrasti; 1000 g/ha) is reported as “very good (a very good herbicidal activity is given at values of at least 85)”.
With `COC(=O)C(C)c1nc(C2CC2)ncc1-c1ccccc1Br` (stereo not drawn) [Ex. 85] the herbicidal activity (Abutilon theophrasti; 2000 g/ha) was “very good (a very good herbicidal activity is given at values of at least 85)” and the herbicidal activity (Amaranthus retroflexus; 2000 g/ha) was “good (A good herbicidal activity is given at values of at least 70)”.
In the case of `Cc1ncoc1-c1nc(C2CC2)ncc1-c1cc(C(F)(F)F)ccc1Cl` [Ex. 262], the herbicidal activity (Echinocloa crus-galli [1]; 1000 g/ha) is reported as “very good (a very good herbicidal activity is given at values of at least 85)”, the herbicidal activity (Echinocloa crus-galli [2]; 1000 g/ha) is reported as “very good (a very good herbicidal activity is given at values of at least 85)” and the herbicidal activity (Amaranthus retroflexus; 1000 g/ha) is reported as “very good (a very good herbicidal activity is given at values of at least 85)”. The herbicidal activity (Setaria viridis; 1000 g/ha) was “very good (a very good herbicidal activity is given at values of at least 85)” and the herbicidal activity (Apera spica-venti; 1000 g/ha) was “very good (a very good herbicidal activity is given at values of at least 85)”.
With `Clc1cncc(-c2nc(C3CC3)ncc2-c2ccccc2Cl)c1` [Ex. 279] the herbicidal activity (Alopecurus myosuroides; 1000 g/ha) was “very good (a very good herbicidal activity is given at values of at least 85)”, the herbicidal activity (Abutilon theophrasti; 1000 g/ha) was “very good (a very good herbicidal activity is given at values of at least 85)” and the herbicidal activity (Echinocloa crus-galli [2]; 1000 g/ha) was “very good (a very good herbicidal activity is given at values of at least 85)”. The herbicidal activity (Amaranthus retroflexus; 1000 g/ha) was “very good (a very good herbicidal activity is given at values of at least 85)” and the herbicidal activity (Apera spica-venti; 1000 g/ha) was “very good (a very good herbicidal activity is given at values of at least 85)”.
In the case of `CC(=O)Cc1nc(C2CC2)ncc1-c1ccccc1Cl` [Ex. 146], the herbicidal activity (Echinocloa crus-galli [1]; 2000 g/ha) is reported as “very good (a very good herbicidal activity is given at values of at least 85)”, the herbicidal activity (Abutilon theophrasti; 2000 g/ha) is reported as “very good (a very good herbicidal activity is given at values of at least 85)” and the herbicidal activity (Echinocloa crus-galli [2]; 2000 g/ha) is reported as “very good (a very good herbicidal activity is given at values of at least 85)”. The herbicidal activity (Setaria viridis; 2000 g/ha) was “very good (a very good herbicidal activity is given at values of at least 85)” and the herbicidal activity (Apera spica-venti; 2000 g/ha) was “very good (a very good herbicidal activity is given at values of at least 85)”.
In the case of `OC(c1nc(C2CC2)ncc1-c1ccccc1Cl)C(O)c1c(Cl)ccc(Cl)c1Cl` (stereo not drawn) [Ex. 241], the herbicidal activity (Echinocloa crus-galli [1]; 2000 g/ha) is reported as “good (A good herbicidal activity is given at values of at least 70)” and the herbicidal activity (Poa annua; 2000 g/ha) is reported as “very good (a very good herbicidal activity is given at values of at least 85)”.
In the case of `CC(C)(C)c1ncc(-c2nc(C3CC3)ncc2-c2ccccc2Cl)o1` [Ex. 294], the herbicidal activity (Echinocloa crus-galli [1]; 2000 g/ha) is reported as “very good (a very good herbicidal activity is given at values of at least 85)”, the herbicidal activity (Alopecurus myosuroides; 2000 g/ha) is reported as “very good (a very good herbicidal activity is given at values of at least 85)” and the herbicidal activity (Abutilon theophrasti; 2000 g/ha) is reported as “very good (a very good herbicidal activity is given at values of at least 85)”. The herbicidal activity (Apera spica-venti; 2000 g/ha) was “good (A good herbicidal activity is given at values of at least 70)”.
For `Cc1nc(C)c(-c2nc(C3CC3)ncc2-c2cc(C(F)(F)F)ccc2Cl)o1` [Ex. 278], the herbicidal activity (Echinocloa crus-galli [1]; 1000 g/ha) was “very good (a very good herbicidal activity is given at values of at least 85)”, the herbicidal activity (Abutilon theophrasti; 1000 g/ha) was “very good (a very good herbicidal activity is given at values of at least 85)” and the herbicidal activity (Echinocloa crus-galli [2]; 1000 g/ha) was “very good (a very good herbicidal activity is given at values of at least 85)”. For the same compound, the herbicidal activity (Amaranthus retroflexus; 1000 g/ha) was “very good (a very good herbicidal activity is given at values of at least 85)” and the herbicidal activity (Apera spica-venti; 1000 g/ha) was “very good (a very good herbicidal activity is given at values of at least 85)”.
With `Cc1ccccc1-c1cnc(C2CC2)nc1C` [Ex. 19] the herbicidal activity (Abutilon theophrasti; 2000 g/ha) was “very good (a very good herbicidal activity is given at values of at least 85)” and the herbicidal activity (Amaranthus retroflexus; 2000 g/ha) was “very good (a very good herbicidal activity is given at values of at least 85)”.
With `Cc1oc(Br)cc1-c1nc(C2CC2)ncc1-c1ccccc1Br` [Ex. 253] the herbicidal activity (Alopecurus myosuroides; 1000 g/ha) was “very good (a very good herbicidal activity is given at values of at least 85)”, the herbicidal activity (Abutilon theophrasti; 1000 g/ha) was “good (A good herbicidal activity is given at values of at least 70)” and the herbicidal activity (Amaranthus retroflexus; 1000 g/ha) was “very good (a very good herbicidal activity is given at values of at least 85)”.
For `Cc1coc(C)c1-c1nc(C2CC2)ncc1-c1ccccc1Br` [Ex. 252], the herbicidal activity (Abutilon theophrasti; 1000 g/ha) was “very good (a very good herbicidal activity is given at values of at least 85)”.
For `Cc1nc(C)c(-c2nc(C3CC3)ncc2-c2ccc(F)cc2Cl)o1` [Ex. 276], the herbicidal activity (Alopecurus myosuroides; 1000 g/ha) was “very good (a very good herbicidal activity is given at values of at least 85)”, the herbicidal activity (Abutilon theophrasti; 1000 g/ha) was “very good (a very good herbicidal activity is given at values of at least 85)” and the herbicidal activity (Amaranthus retroflexus; 1000 g/ha) was “very good (a very good herbicidal activity is given at values of at least 85)”. The herbicidal activity (Apera spica-venti; 1000 g/ha) was “very good (a very good herbicidal activity is given at values of at least 85)”.
In the case of `C=Cc1nc(C2CC2)ncc1-c1ccccc1Cl` [Ex. 211], the herbicidal activity (Echinocloa crus-galli [1]; 2000 g/ha) is reported as “very good (a very good herbicidal activity is given at values of at least 85)”, the herbicidal activity (Alopecurus myosuroides; 2000 g/ha) is reported as “good (A good herbicidal activity is given at values of at least 70)” and the herbicidal activity (Poa annua; 2000 g/ha) is reported as “good (A good herbicidal activity is given at values of at least 70)”. For the same compound, the herbicidal activity (Apera spica-venti; 2000 g/ha) was “good (A good herbicidal activity is given at values of at least 70)”.
